Assay results as given in patent US20200398077A1, “SYSTEM AND METHOD TO ERADICATE A MAJORITY OF DISEASE-CAUSING GERMS AND PRODUCE AVIRULENT PHENOTYPE SURVIVORS SUSCEPTIBLE TO MICROBICIDES USING A LIGHT DOSE REGIMENT” (priority 2019, published 2020).

Assays:
[1] = tested on: S. aureus ATCC 33592 (MRSA) Parental Wild-Type; experiment: Kirby-Bauer zones of inhibition (ZOI) antibiotic susceptibility assay, untreated MRSA parent strain; as to Susceptibility class (CLSI): key: R = resistant; S = susceptible; assay type: cell-based; conditions: for Resistance/susceptibility in words (heatmap profile, FIG. 8): Parental Wild-Type, panel 120, CLSI M100-ED29:2019; for Susceptibility class (CLSI) / Zone diameter: S. aureus ATCC 33592 (MRSA), untreated parent, Kirby-Bauer ZOI
Method: (§1) Table 7 below show and example of a Clinical laboratories Science Institute (CLSI) reference table typically used by clinicians and clinical microbiology laboratories to establish whether a clinical isolate is susceptible, intermediate or resistant to a particular type of antibiotic under the Kirby-Bauer ZOI assay:
(§2) In one example, the Kirby-bauer Zones of Inhibition (Z01) assay was performed on the untreated MRSA parent strain and the two generations of the depigmented avirulent phenotype survivors susceptible to microbicides were created by applying the light dose regiment of system 10 and the method thereof discussed above based on the CLSI guidelines, See Table 8 below:
(§3) The first generation (G1) is the avirulent phenotype survivors susceptible to microbicides created by system 10 and the method thereof and the second generation (G2) is the avirulent phenotype survivors susceptible to microbicides created by system 10 and the method thereof. In this example, the ZOI for Linezolid is indicated at 90, the ZOI for Norfloxacin is indicated at 92, the ZOI for Cefprozil is indicated at 94, ZOEs 96 and 98 are blank, ZOI 100 is for Rifampin, ZIO 102 is for Oxacillin and ZOI 104 is for Tetracycline. The growth control for Generation 1 (G1), Generation 2 (G2) and the wild type (WT) is indicated at 106, 108 and 110, respectively. In this example, Methicillin Resistant, S. aureus ATCC 33592. In this example, WT is Oxacillin is considered equivalent to methicillin when describing a MRSA strain. In this example, the ZOIs were measured at 24 hours and 72-hours past-challenge. Generation 1 was serially passaged onto an antibiotic-free TSA plate, then transferred to TSB liquid culture prior to performing the ZOI assay. Generation 2 was transferred from Generation 1, serially passaged onto an antibiotic-free TSA plate, then transferred to a TSB liquid culture prior to performing the ZOI assay. […] Thus, the avirulent phenotype survivors susceptible to microbicides are stable over multiple generations.
(§4) See e.g., Clinical and Laboratory Standards Institute, Performance Standards for Antimicrobial Susceptibility Testing, 29th Edition 950 West Valley Road Suite 2500, Wayne, Pa. 19087 USA, in this example Oxacillin is synonymous with methicillin when describing MRSA.

[2] = tested on: Depigmented Generation 2 avirulent phenotype survivors (MRSA G2); experiment: Kirby-Bauer zones of inhibition (ZOI) antibiotic susceptibility assay, depigmented survivor Generation 2; as to Susceptibility class (CLSI): key: R = resistant; S = susceptible; assay type: cell-based, S. aureus; conditions: for Susceptibility class (CLSI) / Zone diameter: Depigmented Generation 2 after light dose regiment, Kirby-Bauer ZOI; for Resistance/susceptibility in words (heatmap profile, FIG. 8): MRSA G2 (Generation 2), panel 124, after light dose regiment
Method: as §1, §2, §3, §4

[3] = tested on: Depigmented Generation 1 avirulent phenotype survivors (MRSA G1); experiment: Kirby-Bauer zones of inhibition (ZOI) antibiotic susceptibility assay, depigmented survivor Generation 1; as to Susceptibility class (CLSI): key: R = resistant; S = susceptible; assay type: cell-based, S. aureus; conditions: for Susceptibility class (CLSI) / Zone diameter: Depigmented Generation 1 after light dose regiment, Kirby-Bauer ZOI; for Resistance/susceptibility in words (heatmap profile, FIG. 8): MRSA G1 (Generation 1), panel 122, after light dose regiment
Method: as §1, §2, §3, §4

Row | SMILES | Resistance/susceptibility in words (heatmap profile, FIG. 8) [1] | Susceptibility class (CLSI) [1] | Zone diameter [1] | Susceptibility class (CLSI) [2] | Zone diameter [2] [mm] | Resistance/susceptibility in words (heatmap profile, FIG. 8) [2] | Susceptibility class (CLSI) [3] | Zone diameter [3] [mm] | Resistance/susceptibility in words (heatmap profile, FIG. 8) [3]
1 | CC=CC1=C(C(=O)O)N2C(=O)[C@@H](NC(=O)[C@H](N)c3ccc(O)cc3)[C@H]2SC1 [Cefprozil] | resistant | R | No Inhibition | S | 42.98 | susceptible | S | 42.99 | susceptible
2 | CC(=O)NC[C@H]1CN(c2ccc(N3CCOCC3)c(F)c2)C(=O)O1 [Linezolid] | susceptible | S | 31.33 mm | S | 32.8 |  | S | 35.11 | 
3 | CCn1cc(C(=O)O)c(=O)c2cc(F)c(N3CCNCC3)cc21 [Norfloxacin] | susceptible | S | 27.67 mm | S | 30.17 |  | S | 32.68 | 
4 | Cc1onc(-c2ccccc2)c1C(=O)N[C@@H]1C(=O)N2[C@@H]1SC(C)(C)[C@@H]2C(=O)O [Oxacillin] | resistant | R | No Inhibition | S | 27.25 | susceptible | S | 28.04 | susceptible
5 | CO[C@H]1/C=C/O[C@@]2(C)Oc3c(C)c(O)c4c(O)c(c(/C=N/N5CCN(C)CC5)c(O)c4c3C2=O)NC(=O)/C(C)=C\C=C\[C@H](C)[C@H](O)[C@@H](C)[C@@H](O)[C@@H](C)[C@H](OC(C)=O)[C@@H]1C [Rifampin] | resistant | R | No Inhibition | S | 48.68 | susceptible | S | 45.04 | susceptible
6 | CN(C)[C@@H]1C(O)=C(C(N)=O)C(=O)[C@@]2(O)C(O)=C3C(=O)c4c(O)cccc4[C@@](C)(O)[C@H]3C[C@@H]12 [Tetracycline] |  | R |  | S | 31.31 |  | S | 34.66 | 
